Structures can show the parent of a compound that is named as a salt.
Columns and labels:
Format in all cases: physicochemical
[1] = Stability under stress conditions (heating, grinding, high pressure); conditions: for stability under stress conditions: heating, grinding and high pressure
Hygroscopicity = assay: Hygroscopicity
[2] = Storage stability under humidity/temperature conditions; conditions: for stability under regular conditions: 60% RH at RT; for stability under regular conditions / stability under accelerated conditions: for at least one month; for stability under accelerated conditions: 75% RH at 40° C.; for stability up to 80% RH: up to 80% RH at RT, for at least one week

| Compound | stability under stress conditions [1] | hygroscopicity (Hygroscopicity) | stability under regular conditions [2] | stability under accelerated conditions [2] | stability up to 80% RH [2] | stability under grinding ([1]; grinding) |
| --- | --- | --- | --- | --- | --- | --- |
| O=C(c1ccc(NS(=O)(=O)c2cccc3cccnc23)cc1)N1CCN(CC2CC2)CC1 [Form I of Mitapivat HCl, Mitapivat HCl] | stable | non-hygroscopic | stable | stable |  |  |
| O=C(c1ccc(NS(=O)(=O)c2cccc3cccnc23)cc1)N1CCN(CC2CC2)CC1 [Form III of Mitapivat HCl, Mitapivat HCl] |  |  |  |  | stable |  |
| Mitapivat hemisulfate:ascorbic acid | stable | non-hygroscopic | polymorphically and chemically stable | polymorphically and chemically stable |  |  |
| Mitapivat phosphate [Form P1 of Mitapivat phosphate] |  | non-hygroscopic |  |  | stable | stable |

— patent US12286404B2, “Solid state forms of Mitapivat and process for preparation thereof” (TEVA PHARMACEUTICALS INTERNATIONAL GMBH, priority 2020, dated 2025)
